{"source": "patent US20250313563A1", "about": "“GLYCOGEN SYNTHASE KINASE 3 INHIBITORS AND USES THEREOF” (The Broad Institute, Inc., priority 2022, published 2025)", "key": {"[1]": {"tested_on": "251 unique detected kinases in rat brain", "test": "In vivo kinome selectivity (chemoproteomics, kinobeads)", "settings": "60 mg/kg", "description": "Chemoproteomics competition was used to evaluate inhibitor selectivity and target engagement in vivo. Frozen cortexes were prepared for homogenization with 1.2 mL of Lysis Buffer (50 mM Tris-HCl, 0.8% NP-40 ((octylphenoxy poly(ethyleneoxy) ethanol)), 5% glycerol, 150 mM NaCl, 1.5 mM MgCl2, 25 mM NaF, 1 mM sodium vanadate, 1 mM DTT, pH 7.5 and supplemented with protease inhibitors). Tissues were homogenized in FastPrep-24 5G instrument at maximum oscillations for 20 seconds. The resulting brain homogenate was clarified by centrifugation for 1 h at 145 000 g, 4° C. The protein concentration of the supernatant was determined by BCA assay and each sample was diluted to final concentration of 5 mg/mL with lysis buffer. […] The dry peptide mixture was reconstituted in 15 μL of 0.1% trifluoro acetic acid and analyzed on ID nanoLC-MS/MS platform using a standardized 140 min method. Peptides were separated on an Easy-Spray column (75 μm×50 cm, PepMAP C18, 1.9 μm) at 250 nL/min, analyzed on a QExactive HF mass spectrometer at data dependent acquisition (DDA) mode with MS1 at 60,000 and MS2 at 15,000 resolution, respectively. […]\nTo investigate whether the effects of 837646 on tau phosphorylation were solely the result of GSK3 inhibition, additional kinases detected by mass spectrometry for compound engagement in the same brain lysates were profiled. […]"}, "GSK3α": {"biological_target": "GSK3α (Homo sapiens (Human), UniProt P49840)", "sequence (P49840 whole entry)": "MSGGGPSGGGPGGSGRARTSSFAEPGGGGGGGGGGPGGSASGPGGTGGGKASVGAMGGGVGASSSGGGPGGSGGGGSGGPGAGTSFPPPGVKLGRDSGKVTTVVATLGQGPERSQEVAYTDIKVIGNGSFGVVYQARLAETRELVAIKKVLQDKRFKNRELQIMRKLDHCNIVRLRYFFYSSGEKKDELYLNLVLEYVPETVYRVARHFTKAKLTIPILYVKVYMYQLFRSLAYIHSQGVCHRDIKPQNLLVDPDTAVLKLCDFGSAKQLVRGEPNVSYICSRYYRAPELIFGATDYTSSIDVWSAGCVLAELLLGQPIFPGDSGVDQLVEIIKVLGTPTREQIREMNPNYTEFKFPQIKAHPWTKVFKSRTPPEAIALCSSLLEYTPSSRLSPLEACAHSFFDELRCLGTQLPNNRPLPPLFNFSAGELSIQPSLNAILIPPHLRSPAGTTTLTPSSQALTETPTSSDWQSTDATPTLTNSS", "test": "AT8 (pS202/pThr205) tau phosphorylation FRET assay, GSK3α-transfected cells", "format": "cell-based", "settings": "GSK3α and GSK3β transfected cells", "quoted_text": "For AT8 assay: FRET antibodies (Custom designed Cisbio assay kit; S202/T205 Tb and total Tau D2 FRET antibodies) were added to lysate in a 384 well assay plate at 1:4 ratio (antibody/lysate). After antibody addition, the plate was left at room temperature for 60 minutes incubation time. Plate was read with appropriate wavelength settings using an Envision plate reader (ex320 and em620 and em665)."}, "[2]": {"biological_target": "GSK3b (GST-full length GSK3b) (Homo sapiens (Human), UniProt P49841)", "sequence (P49841 whole entry)": "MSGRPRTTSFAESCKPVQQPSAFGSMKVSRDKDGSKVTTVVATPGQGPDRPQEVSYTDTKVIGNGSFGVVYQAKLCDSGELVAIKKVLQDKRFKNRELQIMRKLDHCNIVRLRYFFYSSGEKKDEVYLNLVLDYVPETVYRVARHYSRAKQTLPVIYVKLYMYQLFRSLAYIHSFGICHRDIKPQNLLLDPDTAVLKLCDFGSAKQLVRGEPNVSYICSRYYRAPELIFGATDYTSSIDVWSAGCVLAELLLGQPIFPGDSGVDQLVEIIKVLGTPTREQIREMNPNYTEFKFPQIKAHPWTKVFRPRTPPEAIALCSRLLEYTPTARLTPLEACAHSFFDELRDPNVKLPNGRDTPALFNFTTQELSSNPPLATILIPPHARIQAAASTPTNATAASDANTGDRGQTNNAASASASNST", "test": "GSK3b TR-FRET kinase assay", "format": "biochemical", "settings": "geometric mean, GMean", "outline": "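Compound preincubated 30 min, then 1 nM GST-full-length GSK3α or GSK3b run 100 min at ambient temperature with 200 nM biotinylated, S645-prephosphorylated glycogen synthase 631-650 peptide in Tris pH 7.5, MgCl2, DTT, BSA, 1% DMSO. ATP 4 μM (α) or 2 μM (β), or 1 mM. EDTA-quenched; Tb-anti-pSer641/streptavidin-d2 TR-FRET 665/615 ratio gave IC50.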"}, "human GSK3β": {"biological_target": "human GSK3β (Homo sapiens (Human), UniProt P49841)", "sequence (P49841 whole entry)": "as above", "test": "pThr231 tau phosphorylation plate-based assay in HEK-huTau cells transfected with GSK3β", "format": "cell-based", "settings": "HEK-huTau cells transfected with human GSK3β; 10-point dose response, 2 hours; read-out: GSK3β IC50 (inhibition of pThr231)", "description": "HEK293 or SH-SY5Y cells were obtained from American Type Culture Collection (ATCC, Manassas, VA) and cultured in Dulbecco's modified Eagle's medium (DMEM) supplemented with 10% fetal bovine serum (FBS), 10 units/ml penicillin, and 10 μg/ml streptomycin (all reagents were purchased from Gibco, Waltham, MA). Cell cultures were maintained in a humidified 5% (v/v) CO2/air environment at 37° C. When the cells reached 50-80% confluence, they were transfected with a complex consisting of a 3:1 ratio of FuGENE 6 Transfection Reagent (Promega, Madison, WI) and plasmid DNA. Plasmid DNA was balanced out across reactions using an empty plasmid so that the same amount of DNA was added per well. This transfection complex was prepared following the manufacturers protocol and added directly to the cell media for 24 or 48 hours prior to lysis.\n293T cells stably expressing human 2N4R Tau were transfected with appropriate cDNA plasmids. 24 hours following transfection cells were treated with compound in a 10-point dose-response (from 1000× stocks of compound) and lysates harvested 2 hours later with cell extraction buffer (Life Technologies Cat #BN0001) or RIPA Buffer with Halt protease/phosphatase inhibitors added.\nFor pThr231 assay: Lysate was diluted 1:100 in assay buffer and Total Tau and pTau T231 was assessed by plate-based ELISA as per manufacturer instructions (MSD Cat #K15121D-1). Total fluorescence was measured using an Envison plate reader.\nTo test the potency and isoform selectivity of GSK3 small molecule inhibitors, HEK-huTau cells were transfected with plasmids containing either human GSK3α or GSK3β. Twenty-four hours after transfection, compounds were added at a 10-point dose response curve (at a range of 30 μM-3 nM) for a total of 2 hours, and cell lysates were probed for total tau and pThr231 using a plate-based assay."}}, "note": "Read-outs that look alike come from different tables or passages of the source.", "data": [{"compound": "CCC1(c2cccc(C(F)(F)F)c2)C2=C(Nc3n[nH]cc31)C(F)C(C)(C)CC2=O", "note": "(single isomer, unassigned) [Compound 837646, 4-ethyl-8-fluoro-7,7-dimethyl-4-(3-(trifluoromethyl)phenyl)-2,4,6,7,8,9-hexahydro-5H-pyrazolo[3,4-b]quinolin-5-one]", "values": [{"measurement": "number of off-target kinases with target engagement greater than 70%", "setting": "[1]; Cmax, of 251 unique kinases, apart from GSK3", "value": 6}, {"measurement": "number of kinases with target engagement greater than 70% (including GSK3α)", "setting": "[1]; out of 251 unique detected kinases", "value": 7}, {"measurement": "relative cellular potency and paralog selectivity at pS202/pThr205 (AT8) compared with pThr231 assay", "setting": "GSK3α", "value": "similar"}, {"measurement": "IC50", "setting": "[2]; 1 nM GSK3b, 2 μM ATP, 30 minute preincubation, read-out: GSK3-B TR-FRET BIOCHEMICAL (TR-FRET), IC50", "value": "≤ 100", "unit": "nM"}, {"measurement": "IC50", "setting": "[2]; GSK3-B (TR-FRET 1 mM ATP), IC50, 1 mM ATP", "value": "1000 to 5000", "unit": "nM"}, {"measurement": "IC50", "setting": "human GSK3β", "value": 1000, "unit": "nM"}]}]}
